Source: patent US9113629B2, “4-amino-6-(4-substituted-phenyl)-picolinates and 6-amino-2-(4-substituted-phenyl)-pyrimidine-4-carboxylates and their use as herbicides” (DOW AGROSCIENCES LLC, priority 2013, dated 2015)

Legend:
Test in all cases: Post-emergent Test III, herbicidal activity in wheat and barley
Format in all cases: in vivo
[1] = test system: SASKR: Russian thistle (Salsola iberica); conditions: 21 days after application; for pest or weed control at 35 g/ha / pest or weed control at 70 g/ha: Salsola tragus, post-emergence, 504 h, read-out: Visual Gorowth Reduction (%) 21 days After Application SASKR; for pest or weed control at 35 g/ha: 35 g ai/ha; for pest or weed control at 70 g/ha: 70 g ai/ha; for GR50 SASKR / GR80 SASKR: probit analysis; for GR50 SASKR: dose for 50 percent growth reduction; for GR80 SASKR: dose for 80 percent growth reduction
How it was run: (§1)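 Plants at the second to third true-leaf stage, grown in a greenhouse at about 18/17 °C with a 14 h photoperiod, were sprayed post-emergence at 187 L/ha with the high rate and ½× to 1/16× serial dilutions in an acetone/DMSO/crop-oil/surfactant carrier. Injury was rated visually at 21 d on a 0–100% scale, and GR20–GR90 were derived by probit analysis.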

[2] = test system: HORSS: barley, including spring and winter (Hordeum vulgare); conditions: 21 days after application; for pest or weed control at 35 g/ha / pest or weed control at 70 g/ha: Hordeum vulgare, post-emergence, 504 h, read-out: Visual Gorowth Reduction (%) 21 days After Application HORSS; for pest or weed control at 35 g/ha: 35 g ai/ha; for pest or weed control at 70 g/ha: 70 g ai/ha; for GR20 HORSS: probit analysis, dose for 20 percent growth reduction (crop)
How it was run: as §1

[3] = test system: VERPE: bird's-eye speedwell (veronica persica); conditions: 21 days after application; for pest or weed control at 35 g/ha / pest or weed control at 70 g/ha: Veronica persica, post-emergence, 504 h, read-out: Visual Gorowth Reduction (%) 21 days After Application VERPE; for pest or weed control at 35 g/ha: 35 g ai/ha; for pest or weed control at 70 g/ha: 70 g ai/ha; for GR50 VERPE / GR80 VERPE: probit analysis; for GR50 VERPE: dose for 50 percent growth reduction; for GR80 VERPE: dose for 80 percent growth reduction
How it was run: as §1

[4] = test system: VIOSS: wild pansy (Viola tricolor), field violet (Viola arvensis); conditions: 21 days after application; for pest or weed control at 35 g/ha / pest or weed control at 70 g/ha: Viola tricolor, post-emergence, 504 h, read-out: Visual Gorowth Reduction (%) 21 days After Application VIOSS; for pest or weed control at 35 g/ha: 35 g ai/ha; for pest or weed control at 70 g/ha: 70 g ai/ha; for GR50 VIOSS / GR80 VIOSS: probit analysis; for GR50 VIOSS: dose for 50 percent growth reduction; for GR80 VIOSS: dose for 80 percent growth reduction
How it was run: as §1

[5] = test system: KCHSC: kochia (Kochia scoparia); conditions: 21 days after application; for pest or weed control at 35 g/ha / pest or weed control at 70 g/ha: Bassia scoparia, post-emergence, 504 h, read-out: Visual Gorowth Reduction (%) 21 days After Application KCHSC; for pest or weed control at 35 g/ha: 35 g ai/ha; for pest or weed control at 70 g/ha: 70 g ai/ha; for GR50 KCHSC / GR80 KCHSC: probit analysis; for GR50 KCHSC: dose for 50 percent growth reduction; for GR80 KCHSC: dose for 80 percent growth reduction
How it was run: as §1

[6] = test system: MATSS: scented mayweed (Matricaria chamomilla), pineappleweed (Matricaria matricarioides); conditions: 21 days after application; for pest or weed control at 35 g/ha / pest or weed control at 70 g/ha: Matricaria chamomilla, post-emergence, 504 h, read-out: Visual Gorowth Reduction (%) 21 days After Application MATSS; for pest or weed control at 35 g/ha: 35 g ai/ha; for pest or weed control at 70 g/ha: 70 g ai/ha; for GR50 MATSS / GR80 MATSS: probit analysis; for GR50 MATSS: dose for 50 percent growth reduction; for GR80 MATSS: dose for 80 percent growth reduction
How it was run: as §1

[7] = test system: TRZSS: wheat, including spring and winter (Triticum aestivum); conditions: 21 days after application; for pest or weed control at 35 g/ha / pest or weed control at 70 g/ha: Triticum aestivum, post-emergence, 504 h, read-out: Visual Gorowth Reduction (%) 21 days After Application TRZSS; for pest or weed control at 35 g/ha: 35 g ai/ha; for pest or weed control at 70 g/ha: 70 g ai/ha; for GR20 TRZSS: probit analysis, dose for 20 percent growth reduction (crop)
How it was run: as §1

| SMILES | pest or weed control at 35 g/ha [1] [%] | pest or weed control at 70 g/ha [1] [%] | GR50 SASKR [1] [g ai/ha] | GR80 SASKR [1] [g ai/ha] | pest or weed control at 35 g/ha [2] [%] | pest or weed control at 70 g/ha [2] [%] | GR20 HORSS [2] [g ai/ha] | pest or weed control at 35 g/ha [3] [%] | pest or weed control at 70 g/ha [3] [%] | GR50 VERPE [3] [g ai/ha] | GR80 VERPE [3] [g ai/ha] | pest or weed control at 35 g/ha [4] [%] | pest or weed control at 70 g/ha [4] [%] | GR50 VIOSS [4] [g ai/ha] | GR80 VIOSS [4] [g ai/ha] | pest or weed control at 35 g/ha [5] [%] | pest or weed control at 70 g/ha [5] [%] | GR50 KCHSC [5] [g ai/ha] | GR80 KCHSC [5] [g ai/ha] | pest or weed control at 35 g/ha [6] [%] | further results |
| --- | --- | --- | --- | --- | --- | --- | --- | --- | --- | --- | --- | --- | --- | --- | --- | --- | --- | --- | --- | --- | --- |
| COc1c(N)nc(-c2ccc(Br)c(F)c2F)nc1C(=O)O [Compound 8] | 85 to 94 | 85 to 94 | 1 | 16 | 60 to 74 | 75 to 84 | 1 | 95 to 100 | 95 to 100 | 1 | 1 | 85 to 94 | 85 to 94 | 13 | 28 | 95 to 100 | 95 to 100 | 3 | 6 | 60 to 74 | pest or weed control at 70 g/ha [6]: 75 to 84%; GR50 MATSS [6]: 26 g ai/ha; GR80 MATSS [6]: 73 g ai/ha; pest or weed control at 35 g/ha [7]: 75 to 84%; pest or weed control at 70 g/ha [7]: 85 to 94%; GR20 TRZSS [7]: 1 g ai/ha |
| Nc1c(F)c(-c2ccc(Br)c(F)c2)nc(C(=O)O)c1Cl [Compound 21] | 75 to 84 | 85 to 94 | 1 | 25 | 85 to 94 | 95 to 100 | 1 | 30 to 44 | 0 to 29 | 130 | >140 | 95 to 100 | 95 to 100 | 4 | 6 | 95 to 100 | 95 to 100 | 1 | 1 | 85 to 94 | pest or weed control at 70 g/ha [6]: 85 to 94%; GR50 MATSS [6]: 5 g ai/ha; GR80 MATSS [6]: 31 g ai/ha; pest or weed control at 35 g/ha [7]: 75 to 84%; pest or weed control at 70 g/ha [7]: 85 to 94%; GR20 TRZSS [7]: 1 g ai/ha |
| Nc1cc(-c2ccc(I)c(F)c2F)nc(C(=O)O)c1Cl [Compound 38] | 60 to 74 | 60 to 74 | 17 | 68 | 85 to 94 | 85 to 94 | 1 | 30 to 44 | 60 to 74 | 42 | 112 | 95 to 100 | 95 to 100 | 13 | 26 | 85 to 94 | 85 to 94 | 1 | 24 | 60 to 74 | pest or weed control at 70 g/ha [6]: 85 to 94%; GR50 MATSS [6]: 21 g ai/ha; GR80 MATSS [6]: 56 g ai/ha; pest or weed control at 35 g/ha [7]: 85 to 94%; pest or weed control at 70 g/ha [7]: 85 to 94%; GR20 TRZSS [7]: 1 g ai/ha |
